According to the NIST ThermoML archive (doi:10.1021/je0496600):

Assay: mn = molality of the nth substance listed, in mol/kg
Conditions: 101.3 kPa, Liquid; for speed of sound: Sing-around technique in a fixed-path interferometer

O=C[O-].[Na+] [sodium methanoate] + O
Conditions	mass density, 298.15 K [kg/m3]	mass density, 308.15 K [kg/m3]	mass density, 318.15 K [kg/m3]	speed of sound, 298.15 K [m/s]	speed of sound, 308.15 K [m/s]	speed of sound, 318.15 K [m/s]
m1 = 0.0263	998.164	995.129	991.308	1498.6	1521.7	1538.3
m1 = 0.0331	998.451	995.412	991.587	1499.1	1522.1	1538.8
m1 = 0.0437	998.896	995.851	992.021	1499.7	1522.7	1539.3
m1 = 0.0497	999.147	996.099	992.265	1500.1	1523.1	1539.6
m1 = 0.057	999.452	996.397	992.559	1500.6	1523.5	1540
m1 = 0.0682	999.921	996.863	993.016	1501.2	1524.2	1540.6
m1 = 0.0747	1000.2	997.131	993.282	1501.6	1524.5	1541
m1 = 0.0811	1000.46	997.398	993.545	1502.1	1524.9	1541.3
m1 = 0.0909	1000.88	997.799	993.945	1502.7	1525.5	1541.9
m1 = 0.0975	1001.15	998.074	994.215	1503	1525.9	1542.4
m1 = 0.1428	1003.03	999.916	996.044	1505.9	1528.5	1544.5
m1 = 0.2955	1009.33	1006.11	1002.18	1515.1	1536.9	1552.5
m1 = 0.4697	1016.34	1012.98	1008.95	1525.2	1546.2	1561.2
m1 = 0.6887	1024.99	1021.49	1017.38	1537.7	1557.7	1572.6
m1 = 0.8366	1030.69	1027.11	1022.93	1546	1565.3	1579
m1 = 0.9653	1035.61	1031.93	1027.66	1553.1	1571.8	1584.9
m1 = 1.139	1042.15	1038.38	1034.04	1562.4	1580.4	1593.2
m1 = 1.233	1045.63	1041.81	1037.43	1567.5	1585	1597.3
m1 = 1.496	1055.23	1051.27	1046.79	1581.2	1597.5	1609.2
m1 = 2.188	1079.46	1075.15	1070.43	1615.3	1628.8	1638.3
m1 = 2.783	1099.17	1094.61	1089.57	1642.8	1653.9	1661.4
m1 = 3.458	1120.32	1115.48	1110.11	1671.7	1680.4	1685.7
m1 = 4.201	1142.29	1137.22	1131.78	1701.1	1707.2	1709.9
m1 = 4.966	1163.55	1158.26	1152.83	1729.1	1732.7	1733.4
m1 = 6.561	1204.09	1198.4	1192.37	1779.4	1778.7	1775.7
m1 = 7.737	1230.99	1225.05	1218.87	1811.1	1807.6	1802
m1 = 8.551	1248.27	1242.15	1235.77	1830.5	1825.3	1818.3
m1 = 10.05	1277.62	1271.22	1264.6	1862.1	1854.1	1844.6

O=C([O-])CCC(=O)[O-].[Na+].[Na+] [disodium succinate] + O
Conditions	mass density, 298.15 K [kg/m3]	mass density, 308.15 K [kg/m3]	mass density, 318.15 K [kg/m3]	speed of sound, 298.15 K [m/s]	speed of sound, 308.15 K [m/s]	speed of sound, 318.15 K [m/s]
m1 = 0.0188	999.052	996.011	992.179	1500.2	1523.2	1539.9
m1 = 0.0239	999.583	996.544	992.703	1501.1	1524.1	1540.6
m1 = 0.0336	1000.61	997.55	993.703	1502.7	1525.6	1542.1
m1 = 0.0373	1001	997.934	994.083	1503.4	1526.2	1542.7
m1 = 0.0452	1001.82	998.747	994.887	1504.9	1527.5	1544
m1 = 0.0489	1002.2	999.13	995.266	1505.4	1528	1544.6
m1 = 0.0546	1002.79	999.711	995.841	1506.3	1528.9	1545.3
m1 = 0.0593	1003.28	1000.19	996.315	1507.1	1529.7	1546.6
m1 = 0.068	1004.18	1001.08	997.197	1509	1531.7	1547.5
m1 = 0.0763	1005.05	1001.94	998.046	1510.5	1532.4	1548.5
m1 = 0.0864	1006.09	1002.96	999.064	1511.7	1533.9	1549.9
m1 = 0.0935	1006.82	1003.69	999.785	1512.8	1535.1	1551.2
m1 = 0.1221	1009.74	1006.56	1002.63	1517.5	1539.5	1555.2
m1 = 0.2589	1023.44	1020.07	1016.03	1539.8	1560.3	1575.1
m1 = 0.3292	1030.32	1026.85	1022.73	1551	1570.8	1585.2
m1 = 0.4019	1037.3	1033.75	1029.56	1562.4	1581.6	1595.8
m1 = 0.4364	1040.57	1036.98	1032.77	1567.8	1586.6	1600.7
m1 = 0.5252	1048.89	1045.2	1040.92	1582	1599.5	1612
m1 = 0.6535	1060.59	1056.74	1052.37	1601.2	1617.8	1629.2
m1 = 0.7422	1068.47	1064.55	1060.13	1615.1	1630.5	1641
m1 = 0.9099	1083.03	1078.94	1074.41	1639.8	1653.3	1662.7
m1 = 1.168	1104.44	1100.13	1095.45	1675.7	1687.5	1694.9
m1 = 1.43	1125.04	1120.37	1115.74	1711.2	1720.9	1726.2
m1 = 1.748	1148.68	1143.92	1138.95	1752.4	1759	1762.5
